{"source": "paper PMC8486139", "about": "“A new phenothiazine derivate is active against Clostridioides difficile and shows low cytotoxicity” (PLoS ONE, 2021)", "key": {"MRSA": {"tested_on": "MRSA", "settings": "cited from earlier work"}, "Caco-2 cell monolayers [1]": {"tested_on": "Caco-2 cell monolayers", "assay": "MTS/PMS cell proliferation (metabolic activity) assay", "format": "cell-based", "description": "The cell proliferation assay (MTS/PMS; [3-(4,5-dimethylthiazol-2-yl)-5-(3-carboxymethoxyphenyl)-2-(4-sulfophenyl)-2H-tetrazolium, inner salt; MTS] and an electron coupling reagent (phenazine methosulfate) PMS) assay was performed by incubating the Caco-2 cell monolayers with 400 μL of a PMS/MTS solution in the apical compartment and 500 μL supplemented HBSS in the basolateral chamber (according to manufacturer’s instructions) for 60 minutes at 37°C and circular rotation (50 rpm). After incubation, 2×100 μL samples were taken from each monolayer and the absorbance at 492 nm in a 96-well plate."}, "C. difficile ATCC 43255 [2]": {"tested_on": "C. difficile ATCC 43255", "assay": "Minimum bactericidal concentration (MBC), plating from MIC wells", "settings": "C. difficile ATCC 43255, ≥3 log reduction of inoculum", "protocol": "Minimum bactericidal concentration (MIC) values were defined as the lowest concentrations of test compounds causing ≥3 log reductions of the initial cell inocula (∼ 10^5 CFU/mL in the final assay). Briefly, 100 μl from each well of the MIC assay (after incubation) were plates on ChromID® plates. After incubation for 24 h, viable counts were enumerated on ChromID® plates. Both the MIC and MBC were conducted with three biological replicates."}, "fecal bacterial count": {"tested_on": "fecal bacterial count", "assay": "Four-day oral treatment: CFU per gram feces by 16S rRNA qPCR", "format": "in vivo", "settings": "mice; for average CFU/g fecal sample after treatment: four days"}, "C. difficile ATCC 43255 [3]": {"tested_on": "C. difficile ATCC 43255", "assay": "Minimal inhibition concentration (MIC) in 96-well microtitre plates", "format": "cell-based, Clostridioides difficile", "settings": "C. difficile ATCC 43255, 24 h anaerobic incubation", "text": "C. difficile ATCC 43255, previously isolated from an abdominal wound, was used to assess the anti-clostridioides activity of JBC 1847. The strain was stored in reinforced clostridial medium (Oxoid, Roskilde, Denmark) in 15% glycerol at -[…] until use and grown anaerobically on ChromID® C. difficile plates (bioMérieux, Ballerup, Denmark)."}, "[4]": {"tested_on": "gastrointestinal microbiota", "settings": "mice"}, "Caco-2 cell monolayers [5]": {"tested_on": "Caco-2 cell monolayers", "assay": "LDH release assay", "format": "cell-based", "description": "For analysis of the LDH activity, the samples taken from the apical compartment after the exposure experiment were diluted 5-fold and analyzed in the LDH assay according to manufacturer’s instructions. Briefly, the assay consisted of mixing the diluted samples with different assay reagents followed by incubation at room temperature for 30 min and the absorbance at 492 nm as a measure for LDH activity. A lysate of Caco-2 monolayers (prepared by suspending Caco-2 cell monolayers in purified water) was included as a positive control for maximal response in the assay."}, "Caco-2 cell monolayers [6]": {"tested_on": "Caco-2 cell monolayers"}, "[7]": {"tested_on": "Methicillin resistant Staphylococcus aureus (MRSA)", "settings": "cited from earlier work"}, "C. difficile": {"tested_on": "C. difficile", "settings": "previously shown; cited from earlier work"}}, "note": "Read-outs that look alike come from different tables or passages of the source.", "data": [{"smiles": "CC(C)=CCCC(C)CC[N+](C)(C)CCCN1c2ccccc2Sc2ccccc21", "note": "(stereo not shown) [JBC 1847]", "values": [{"measurement": "bacterial load of MRSA in wound model", "setting": "MRSA", "value": "highly effective in decreasing the bacterial load"}, {"measurement": "MTS/PMS response vs buffer controls", "setting": "Caco-2 cell monolayers [1]; 29 μg/mL", "value": "not significantly reduced"}, {"measurement": "MTS/PMS response (metabolic activity) vs buffer control", "setting": "Caco-2 cell monolayers [1]; 58.1 μg/mL (100 μM)", "value": "statistically significant reduction"}, {"measurement": "MBC", "setting": "C. difficile ATCC 43255 [2]", "value": 4, "unit": "µg/mL"}, {"measurement": "average CFU/g fecal sample after treatment", "setting": "fecal bacterial count; 20 mg/kg bw", "value": "4.4 ×10^9 CFU/g"}, {"measurement": "average CFU/g fecal sample after treatment", "setting": "fecal bacterial count; 100 mg/kg bw", "value": "6.8 × 10^9 CFU/g"}, {"measurement": "change in CFU/g fecal sample after treatment", "setting": "fecal bacterial count; p = 0.51", "value": "no significant changes"}, {"measurement": "MIC", "setting": "C. difficile ATCC 43255 [3]", "value": 4, "unit": "µg/mL"}, {"measurement": "tendency in Lactobacillus spp abundance", "setting": "[4]; especially small intestine (Fig 5)", "value": "concentration-depended increase"}, {"measurement": "consistency of the fecal material", "setting": "[4]; exposure trial", "value": "No changes"}, {"measurement": "dose tolerated without any clinical signs of discomfort", "setting": "NMRI female mice; mice, oral", "value": "up to 100 mg/kg bw"}, {"measurement": "clinical score of discomfort", "setting": "NMRI female mice; mouse, in vivo, 25 mg/kg", "value": 1}, {"measurement": "clinical score of discomfort", "setting": "NMRI female mice; mouse, in vivo, 100 mg/kg", "value": 0}, {"measurement": "tolerance of two doses", "setting": "NMRI female mice; mouse, in vivo, po, 100 mg/kg", "value": "tolerated well"}, {"measurement": "LDH release compared to buffer control", "setting": "Caco-2 cell monolayers [5]; 29 μg/mL (50 μM)", "value": "significantly higher"}, {"measurement": "LDH release compared to buffer control", "setting": "Caco-2 cell monolayers [5]; 29 μg/mL (50 μM), listed as JBC1 8473", "value": "statistically significant increase"}, {"measurement": "LDH release compared to buffer control", "setting": "Caco-2 cell monolayers [5]; 58.1 μg/ml in Fig 3", "value": "significantly higher"}, {"measurement": "LDH release compared to buffer control", "setting": "Caco-2 cell monolayers [5]; 58.1 μg/ml in Fig 3, listed as JBC1 8473", "value": "statistically significant increase"}, {"measurement": "effect on TEER", "setting": "Caco-2 cell monolayers [6]; concentrations up to seven times MIC", "value": "did not affect the TEER negatively"}, {"measurement": "cytotoxicity in Caco-2 cell-line assays", "setting": "Caco-2 cell monolayers [6]; concentrations up to seven times the minimal bactericidal concentration", "value": "indication of toxicity was not observed"}, {"measurement": "MIC against MRSA compared to the mother compound, promazine", "setting": "[7]", "value": "lower the minimal inhibition concentration (MIC) remarkably"}]}, {"smiles": "CSc1ccc2c(c1)N(CCC1CCCCN1C)c1ccccc1S2", "note": "(stereo not shown) [Thioridazine]", "values": [{"measurement": "antimicrobial activity against C. difficile", "setting": "C. difficile", "value": "antimicrobial activity"}]}]}
